The record followed here is patent US11332463B2, “Spiropiperidine allosteric modulators of nicotinic acetylcholine receptors” (Merck Sharp & Dohme Corp., priority 2018, dated 2022).

Read-outs that look alike come from different tables or passages of the source. A value given as a limit tells only on which side of the number the result lay.

For the assay, the target named is T1, human α7 nicotinic acetylcholine receptor (HEK cell line stably expressing human RIC-3 and human α7) (Homo sapiens, UniProt P36544).
T1 construct: host or cells: HEK cell line (PrecisION hnAChR α7/RIC-3)
The assay is described as follows: Automated patch-clamp electrophysiology functional assay (Assay A), IonFlux HT, whole-cell population patch. The class given is cell-based. As for the experimental part: The α7 nAChR positive allosteric modulator (PAM) activity of the present compounds may be tested using assays known in the art. […] The assay was performed using the IonFlux HT in a whole-cell, population patch configuration. See Golden et al. Assay Drug Dev. Technol. […] The compounds were assessed for their ability to modulate the function of the human 7 nAChR stably expressed in a HEK cell line both in the presence, and in the absence of the natural 7 agonist acetylcholine. By performing a series of such measurements at different concentrations, the effective concentration of the 7 nAChR PAMs (EC50) was determined. See Spencer et al. Assay Drug Dev. Technol.
Direct activation of α7 (agonism), and potentiation of acetylcholine-evoked 7 currents was determined as follows:
Automated patch-clamp electrophysiology was performed using the IonFlux HT (Fluxion Biosciences Inc., San Francisco, Calif.) in the whole-cell, population patch configuration. Test compounds were assessed for their ability to modulate the function of the α7 nicotinic acetylcholine receptor both in the presence, and in the absence of the natural α7 agonist acetylcholine. […] Immediately prior to assay, cells were detached by first aspirating growth media, rinsing with Dulbecco's phosphate buffered saline, and then adding 10 mL of Accutase (Innovative Cell Technologies, San Diego, Calif.) to the flask and then incubating at 37° C. for 5 minutes. Detached cells were then recovered by the addition of 40 mL of CHO-serum-free media supplemented with 25 mM HEPES, and rocked gently in a 50 mL conical tube for 20 minutes prior to patch-clamp assay. After recovery, cells were pelleted by centrifugation at 1,000 RPM for 1 minute in a compact bench top centrifuge; recovery media was aspirated and cells were resuspended in external recording solution (150 mM NaCl, 5 mM KCl, 2 mM CaCl2), 1 mM MgCl2, 10 mM HEPES, 12 mM dextrose) to a density of 5.0×10^6 cells/mL. The cell suspension was added to the cell inlet wells on an IonFlux HT population patch plate which had previously been rinsed and primed with deionized H2O. Test compounds were serially diluted in DMSO and then resuspended to the final test concentration in external recording solution, with, or without 40 μM acetylcholine added to the external recording solution; test compounds were then transferred to the IonFlux HT population patch plate. Internal recording solution (110 mM TrisPO4, 28 mM TrisBase, 0.1 mM CaCl2, 2 mM MgCl2, 11 mM EGTA, 4 mM MgATP) was added to the internal recording solution inlet wells on the IonFlux HT patch plate previously loaded with cells and test compounds, and the plate loaded into the IonFlux HT instrument. A protocol was executed on the IonFlux HT to trap the cells, break into the cells, and establish the whole-cell recording configuration; cells were voltage-clamped at a holding potential of −60 mV for the duration of the experiment, all experiments were conducted at room temperature, and the IonFlux HT injection pressure was 8 psi for solution applications. Upon establishing the whole-cell configuration, external recording solution was perfused into the recording chambers for 120 seconds and then 40 μM acetylcholine was applied for 1 second and immediately washed off with external recording solution for 60 seconds. The 40 μM acetylcholine-evoked α7 current served as the current response to which subsequent test compound effects, in the presence, or in the absence of 40 μM acetylcholine would be quantified relative to. Next, test compounds were evaluated at multiple concentrations for their ability to induce, or modulate 7 current responses; three concentrations of test compound were evaluated in ascending dose fashion per recording.

Where [1] appears, read: HEK cells expressing human α7/RIC-3, test compound with or without 40 μM acetylcholine, holding potential −60 mV, room temperature, read-out: α7 nAChR Potency.
Where [2] appears, read: automated patch-clamp electrophysiology functional assay (Assay A), read-out: α7 nAChR EC50.

T1 sequence (P36544 23-502): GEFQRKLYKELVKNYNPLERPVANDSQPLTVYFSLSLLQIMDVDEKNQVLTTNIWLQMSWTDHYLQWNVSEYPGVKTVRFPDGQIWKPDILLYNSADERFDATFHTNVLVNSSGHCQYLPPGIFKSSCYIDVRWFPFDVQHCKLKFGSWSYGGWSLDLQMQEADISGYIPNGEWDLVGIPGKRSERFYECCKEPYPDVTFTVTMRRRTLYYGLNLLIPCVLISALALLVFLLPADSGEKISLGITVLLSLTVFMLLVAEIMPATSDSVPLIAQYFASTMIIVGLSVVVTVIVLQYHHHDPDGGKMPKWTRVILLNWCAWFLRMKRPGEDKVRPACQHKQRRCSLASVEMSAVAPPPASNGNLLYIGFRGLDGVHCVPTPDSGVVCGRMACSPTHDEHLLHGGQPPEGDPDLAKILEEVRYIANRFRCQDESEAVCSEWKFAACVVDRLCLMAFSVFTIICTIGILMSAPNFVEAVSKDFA

On to `NS(=O)(=O)N1CCC2(CC1)[C@H](c1nnc(-c3ccnn3C3CC3)o1)C2(F)F` [Example 16, (2R)-2-[5-(1-Cyclopropyl-1H-pyrazol-5-yl)-1,3,4-oxadiazol-2-yl]-1,1-difluoro-6-azaspiro[2.5]octane-6-sulfonamide], for which the EC50 under setting [1] is 100 to 500 nM and the EC50 under setting [2] worked out at 450 nM.
For `NS(=O)(=O)N1CCC2(CC1)C[C@H]2c1noc(-c2ccn(CC(F)(F)F)n2)n1` [Example E25], the EC50 under setting [1] lay within 500 to 5000 nM and the EC50 under setting [2] was 2200 nM.
On to `Cn1ncc(C(F)(F)F)c1-c1nc([C@@H]2C(F)(F)C23CCN(S(N)(=O)=O)CC3)no1` [Example 14, (2R)-1,1-Difluoro-2-{5-[1-methyl-4-(trifluoromethyl)-1H-pyrazol-5-yl]-1,2,4-oxadiazol-3-yl}-6-azaspiro[2.5]octane-6-sulfonamide], for which the EC50 was below 100 nM under setting [1] and 49 nM under setting [2].
For `NS(=O)(=O)N1CCC2(CC1)C[C@H]2c1noc(-c2ccccc2-n2cccn2)n1` [Example E77] the same measures were 500 to 5000 nM and 850 nM.
For `NS(=O)(=O)N1CCC2(CC1)C[C@H]2c1noc(-c2conc2C(F)(F)F)n1` [Example E29], the EC50 reads like this: under setting [1], 500 to 5000 nM; under setting [2], 1600 nM.
On to `NS(=O)(=O)N1CCC2(CC1)[C@H](c1nc(-c3conc3C3CC3)no1)C2(F)F` [Example 11, (2R)-2-[3-(3-Cyclopropylisoxazol-4-yl)-1,2,4-oxadiazol-5-yl]-1,1-difluoro-6-azaspiro[2.5]octane-6-sulfonamide], for which the EC50 by setting is: under setting [1], below 100 nM; under setting [2], 58 nM.
For `NS(=O)(=O)N1CCC2(CC1)C[C@H]2c1noc(-c2cc(Br)ccc2C(F)(F)F)n1` [Example D6], the EC50 under setting [1] lay within 100 to 500 nM.
As to `NS(=O)(=O)N1CCC2(CC1)C[C@H]2c1noc(-c2cnccc2C(F)(F)F)n1` [Example E57], the EC50 under setting [1] lay within 500 to 5000 nM.
Regarding `Cc1cnn(C2CC2)c1-c1nc([C@@H]2CC23CCN(S(N)(=O)=O)CC3)no1` [Example E64], the EC50 by setting is: under setting [1], 500 to 5000 nM; under setting [2], 520 nM.
For the compound `NS(=O)(=O)N1CCC2(CC2c2nc(-c3conc3C3CC3)no2)C(F)C1` (single isomer, unassigned) [Example I8], under setting [1], the EC50 was 5000 to 50000 nM.
Regarding `NS(=O)(=O)N1CCC2(CC1)C[C@H]2c1nnc(-c2cccc(OC(F)F)c2)s1` [Example F10], the EC50 was 450 nM (α7 nAChR EC50 (nM), automated patch-clamp electrophysiology functional assay (Assay A)) and 100 to 500 nM (α7 nAChR Potency, HEK cells expressing human α7/RIC-3, test compound with or without 40 μM acetylcholine, holding potential −60 mV, room temperature).
On to `NS(=O)(=O)N1CCC2(CC1)[C@H](c1ncc(-c3ccc(F)cc3C(F)(F)F)o1)C2(F)F` [Example G5], for which the EC50 by setting is: under setting [1], below 100 nM; under setting [2], 91 nM.
Consider `NS(=O)(=O)N1CCC2(CC1)C[C@H]2c1csc(-c2conc2C2CC2)n1` [Example G2], for which the EC50 under setting [1] was 500 to 5000 nM and the EC50 under setting [2] amounted to 910 nM.
For `COc1ccc(Cl)cc1-c1noc(C2CC23CCN(C(=O)NCc2ccns2)CC3)n1` (racemic) [Example B12] the same measures were 500 to 5000 nM and 3400 nM.
For `NS(=O)(=O)N1CCC2(CC1)[C@H](c1nnc(-c3ccnn3C3CC3)s1)C2(F)F` [Example 17, (2S)-2-[5-(1-Cyclopropyl-1H-pyrazol-5-yl)-1,3,4-thiadiazol-2-yl]-1,1-difluoro-6-azaspiro[2.5]octane-6-sulfonamide] the same measures were 500 to 5000 nM and 550 nM.
For `COc1ccc(Cl)cc1-c1noc([C@@H]2CC23CCN(S(N)(=O)=O)CC3)n1` [Example A1] the same measures were 100 to 500 nM and 490 nM.
On to `NS(=O)(=O)N1CCC2(CC1)[C@H](c1noc(-c3ccccn3)n1)C2(F)F` [Example E67], for which the EC50 runs as follows: under setting [1], 500 to 5000 nM; under setting [2], 2100 nM.
On to `NS(=O)(=O)N1CCC2(CC1)C[C@H]2c1noc(C2(c3cccc(C(F)(F)F)c3)CC2)n1` [Example E14], for which the EC50 is, setting by setting: under setting [1], 500 to 5000 nM; under setting [2], 2000 nM.
For `Cc1onc(-c2nc([C@@H]3CC34CCN(S(N)(=O)=O)CC4)no2)c1C` [Example E27] the same measures were 500 to 5000 nM and 1300 nM.
On the same counts, the results for `NS(=O)(=O)N1CCC2(CC2c2nc(-c3cccc(OC(F)F)c3)no2)C(F)C1` (stereo not drawn) [Example 4, 1-{3-[3-(Difluoromethoxy)phenyl]-1,2,4-oxadiazol-5-yl}-4-fluoro-6-azaspiro[2.5]octane-6-sulfonamide] are 100 to 500 nM and 350 nM.
Consider `NS(=O)(=O)N1CCC2(CC1)C[C@H]2c1noc(C2CC3(CCC3)C2)n1` [Example E20], for which the EC50 is 500 to 5000 nM under setting [1] and 2700 nM under setting [2].
For `NS(=O)(=O)N1CCC2(CC1)C[C@H]2c1noc(-c2ccccc2OC(F)(F)F)n1` [Example D20] the same measures were 100 to 500 nM and 200 nM.
On the same counts, the results for `Cn1nc2c(c1-c1nc([C@@H]3C(F)(F)C34CCN(S(N)(=O)=O)CC4)no1)CCCC2` [Example E66] are 100 to 500 nM and 120 nM.
On the same counts, the results for `NS(=O)(=O)N1CCC2(CC1)C[C@H]2c1noc(-c2cncc(OCC(F)(F)F)c2)n1` [Example E60] are 500 to 5000 nM and 2300 nM.
In the case of `NS(=O)(=O)N1CCC2(CC1)[C@H](c1cc(-c3ccnc(OC(F)F)c3)no1)C2(F)F` [Example G6], the EC50 runs as follows: under setting [1], below 100 nM; under setting [2], 86 nM.
For `NS(=O)(=O)N1CCC2(CC1)C[C@H]2c1noc(-c2ccccc2-n2cccc2)n1` [Example E73] the same measures were 500 to 5000 nM and 640 nM.
For `Cc1ccc(F)cc1-c1nnc([C@@H]2CC23CCN(S(N)(=O)=O)CC3)o1` [Example F5] the same measures were 100 to 500 nM and 420 nM.
As for `Cc1ccc(C)c(-c2nc([C@@H]3C(F)(F)C34CCN(S(N)(=O)=O)CC4)no2)c1` [Example 34, (2R)-2-[5-(2,5-Dimethylphenyl)-1,2,4-oxadiazol-3-yl]-1,1-difluoro-6-azaspiro[2.5]octane-6-sulfonamide], the EC50 runs as follows: under setting [1], below 100 nM; under setting [2], 4.5 nM.
For `NS(=O)(=O)N1CCC2(CC1)C[C@H]2c1noc(-c2ccccc2-c2ncccn2)n1` [Example E76] the same measures were 500 to 5000 nM and 3200 nM.
Regarding `NS(=O)(=O)N1CCC2(CC1)[C@H](c1csc(-c3conc3C3CC3)n1)C2(F)F` [Example G4], the EC50 is 100 to 500 nM under setting [1] and 110 nM under setting [2].
On the same counts, the results for `NS(=O)(=O)N1CCC2(CC1)C[C@H]2c1noc(-c2ccccc2)n1` [Example D8] are 500 to 5000 nM and 1300 nM.
Take `Cc1ccc(-c2nc([C@@H]3CC34CCN(S(N)(=O)=O)CC4)no2)c(C)c1` [Example D19]: under setting [1], the EC50 is 100 to 500 nM.
On to `NS(=O)(=O)N1CCC2(CC1)C[C@H]2c1noc(-c2cccnc2C(F)(F)F)n1` [Example E58], for which the EC50 under setting [1] was 500 to 5000 nM and the EC50 under setting [2] was 3400 nM.
For `NS(=O)(=O)N1CCC2(CC1)[C@H](c1nsc(-c3ccc(F)cc3C(F)(F)F)n1)C2(F)F` (stereo in doubt) [Example 37, 1,1-Difluoro-2-{5-[4-fluoro-2-(trifluoromethyl)phenyl]-1,2,4-thiadiazol-3-yl}-6-azaspiro[2.5]octane-6-sulfonamide] the same measures were 500 to 5000 nM and 1200 nM.
For `Cc1c(-c2nc([C@@H]3C(F)(F)C34CCN(S(N)(=O)=O)CC4)no2)c(C(F)(F)F)nn1C1CC1` [Example E54] the same measures were 100 to 500 nM and 500 nM.
